Results on 9 compounds are retold here after patent publication US10562909B2, “Fused quadracyclic compounds, compositions and uses thereof” (Tabomedex Biosciences, LLC, priority 2016, dated 2020).

In the assay the target is MAPKAPK2 (Homo sapiens, UniProt P49137). The assay is described as follows: MK2 Enzymatic Assay. The class given is biochemical. Conditions: 0.5 nM MAPKAPK2, 3 μM ATP, 2 μM Ser/Thr4 peptide, 23° C., values given as concentration bins. The essentials:
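MAPKAPK2 (2× stock 1 nM) and peptide substrate (2× 4 μM) were preincubated 20 min, then started with ATP (2× stock 6 μM) for 120 min. After 120 min development, coumarin/fluorescein emission ratio gave percent phosphorylation against 0% and 100% phosphopeptide controls.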

What is called IC50 is the midpoint of a concentration-inhibition curve. Read a low IC50 as greater potency.

Sequence of MAPKAPK2 (P49137 whole entry, species assumed): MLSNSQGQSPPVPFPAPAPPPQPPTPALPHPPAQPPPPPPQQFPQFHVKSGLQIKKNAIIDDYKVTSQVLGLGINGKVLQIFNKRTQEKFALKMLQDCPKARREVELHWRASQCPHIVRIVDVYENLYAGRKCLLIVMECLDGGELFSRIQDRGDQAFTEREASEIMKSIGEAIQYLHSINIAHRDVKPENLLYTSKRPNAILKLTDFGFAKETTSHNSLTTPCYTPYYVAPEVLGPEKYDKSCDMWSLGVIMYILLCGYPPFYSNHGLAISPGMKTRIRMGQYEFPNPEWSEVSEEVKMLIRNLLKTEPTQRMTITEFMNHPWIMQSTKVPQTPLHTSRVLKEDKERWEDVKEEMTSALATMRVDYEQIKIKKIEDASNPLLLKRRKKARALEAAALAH

Consider `CN(C)C[C@H]1CN(c2ccc3c(c2)Cn2cc(-c4ccc(F)cc4)cc2-c2ncnn2-3)C[C@H]1F` [Compound 498, 1-((3S,4S)-4-fluoro-1-(12-(4-fluorophenyl)-9H-benzo[e]pyrrolo[1,2-a][1,2,4]triazolo[5,1-c][1,4]diazepin-7-yl)pyrrolidin-3-yl)-N,N-dimethylmethanamine], for which the IC50 was below 50 nM.
Next, `CNC[C@@H]1CN(c2ccc3c(c2)Cn2cc(-c4ccc(F)cc4)cc2-c2ncnn2-3)C[C@@H]1F` [Compound 499, 1-((3R,4R)-4-fluoro-1-(12-(4-fluorophenyl)-9H-benzo[e]pyrrolo[1,2-a][1,2,4]triazolo[5,1-c] [1,4]diazepin-7-yl)pyrrolidin-3-yl)-N-methylmethanamine]: below 50 nM.
As for `CN(C)C[C@@H]1CN(c2ccc3c(c2)Cn2cc(-c4ccc(F)cc4)cc2-c2ncnn2-3)C[C@@H]1F` [Compound 500, 1-((3R,4R)-4-fluoro-1-(12-(4-fluorophenyl)-9H-benzo[e]pyrrolo[1,2-a][1,2,4]triazolo[5,1-c] [1,4]diazepin-7-yl)pyrrolidin-3-yl)-N,N-dimethylmethanamine], the figure is 100 to 200 nM; as for `CC1c2cc(N3C[C@@H](CN(C)C)[C@H](O)C3)ccc2-n2ccnc2-c2cc(-c3ccc(F)cc3)cn21` (stereo partly drawn) [Compound 507, (3S,4R)-4-((dimethylamino)methyl)-1-(12-(4-fluorophenyl)-9-methyl-9H-benzo[e]imidazo[2,1-c]pyrrolo[1,2-a][1,4]diazepin-7-yl)pyrrolidin-3-ol], below 50 nM.
Next, `C[C@@H]1c2cc(N3C[C@@H](CN(C)C)[C@H](O)C3)ccc2-n2ccnc2-c2cc(-c3ccc(F)cc3)cn21` [Compound 508, (3S,4R)-4-((dimethylamino)methyl)-1-((R)-12-(4-fluorophenyl)-9-methyl-9H-benzo[e]imidazo[2,1-c]pyrrolo[1,2-a][1,4]diazepin-7-yl)pyrrolidin-3-ol]: below 50 nM; `C[C@H]1c2cc(N3C[C@@H](CN(C)C)[C@H](O)C3)ccc2-n2ccnc2-c2cc(-c3ccc(F)cc3)cn21` [Compound 509, (3S,4R)-4-((dimethylamino)methyl)-1-((S)-12-(4-fluorophenyl)-9-methyl-9H-benzo[e]imidazo[2,1-c]pyrrolo[1,2-a][1,4]diazepin-7-yl)pyrrolidin-3-ol]: below 50 nM; `CN(C)C[C@@H]1CN(c2ccc3c(c2)Cn2cc(-c4ccc(F)cc4)cc2-c2cnnn2-3)C[C@H]1O` [Compound 511, (3S,4R)-4-((dimethylamino)methyl)-1-(5-(4-fluorophenyl)-8H-benzo[e]pyrrolo[1,2-a][1,2,3]triazolo[5,1-c][1,4]diazepin-10-yl)pyrrolidin-3-ol]: below 50 nM.
`Cc1cc(N2C[C@@H](CN(C)C)[C@H](O)C2)cc2c1-n1ccnc1-c1cc(-c3ccc(F)cc3)cn1C2` [Compound 512, (3S,4R)-4-((dimethylamino)methyl)-1-(12-(4-fluorophenyl)-5-methyl-9H-benzo[e]imidazo[2,1-c]pyrrolo[1,2-a][1,4]diazepin-7-yl)pyrrolidin-3-ol] came in with an IC50 of 500 to 1000 nM.
As for `Cc1cc(N2C[C@@H](CN(C)C)[C@H](O)C2)cc2c1-n1ncnc1-c1cc(-c3ccc(F)cc3)cn1C2` [Compound 513, (3S,4R)-4-((dimethylamino)methyl)-1-(12-(4-fluorophenyl)-5-methyl-9H-benzo[e]pyrrolo[1,2-a][1,2,4]triazolo[5,1-c][1,4]diazepin-7-yl)pyrrolidin-3-ol], the figure is 100 to 200 nM.
